As usually defined, the AUC(0-t) is exposure summed from dosing to a finite time, without extrapolation to infinity. A low value points to less exposure. The term Cmax denotes the peak of the concentration-time curve. A word on the Tmax: it is the time at which the peak concentration occurs. Usually half-life stands for how long it takes for the measured level to halve. A low value points to fast loss. The IC50 is the concentration at which inhibition is half-maximal.

Tested on in one data set: not listed separately
Briefly: Pharmacokinetics of oral administration of rats. The data set is classed as in vivo. To be noted: male, rat, SD rats, p.o. 5.0 mg/kg, plasma. On the procedure:
With SD rats as tested animals, blood drug concentrations in plasma at different moments after oral administration of the compounds of the present application by the rats in a clarification kit mode were determined using an LC-MS/MS method. Pharmacokinetic parameters of the compounds of the present application in the rats were obtained, and pharmacokinetic characteristics of the compounds were studied.
• SD rats, male, weight 180-220 g, 3 rats per group. The animals were fed in an animal house after being purchased, an adaptation period was at least 3 days, and they were used for tests after passing quarantine.
According to Table 4, each group of rats was given the corresponding tested drugs or positive drugs by gavage, before administration, and 15 min, 30 min, 1 h, 2 h, 4 h, 6 h, 8 h, and 24 h after administration, a fixed volume of blood was collected through eye sockets and placed in an EDTA-K2 anticoagulant tube, centrifuging was carried out at 8000 rpm for 1 min to separate plasma into a centrifuge tube, and the plasma was frozen in a −20° C. refrigerator.
The plasma at each time point stored at −20° C. was taken out, then acetonitrile was added, after whirling at 1500 revolutions for 2 min, centrifuging was carried out for 15 min (3500 r/min), and a fixed volume of solution supernatant was taken for LC-MS/MS analysis.
Non-compartment model fitting was carried out on pharmacokinetic behaviors of the tested compounds, and DAS3.31 software was adopted to calculate main pharmacokinetic parameters (T1/2, Tmax, Cmax, AUClast, etc.).
With `COc1ccc(-c2c(C#N)cc(C3CCC(N)CC3)nc2-c2ccc(C#N)c(F)c2)cc1F` (stereo not shown) [Compound 14, 6-(4-aminocyclohexyl)-2-(4-cyano-3-fluorophenyl)-3-(3-fluoro-4-methoxyphenyl)isonicotinonitrile], the AUC(0-t) is 1470 ± 44.6 ng·h/mL, the highest level (Cmax) was 130 ± 7.9 ng/mL, the Tmax was determined as 4.67 ± 2.31 h and the half-life was 5.97 ± 0.29 h.
As to `COc1ccc(-c2c(C#N)cc(N3CCC(N)CC3)nc2-c2ccc(C#N)c(F)c2)cc1F` [Compound 1, 6-(4-aminopiperid-1-yl)-2-(4-cyano-3-fluorophenyl)-3-(3-fluoro-4-methoxyphenyl)isonicotinonitrile], the AUC(0-t) stood at 1300 ± 411 ng·h/mL, the Cmax is 93.9 ± 19.1 ng/mL, the Tmax was determined as 6 h and the half-life was 7.64 ± 2.46 h.
As to `COc1ccc(-c2c(C#N)cc(N3CCCNCC3)nc2-c2ccc(C#N)c(F)c2)cc1F` [Compound 15, 2-(4-cyano-3-fluorophenyl)-6-(1,4-diazacyclohepta-1-yl)-3-(3-fluoro-4-methoxyphenyl)isonicotinonitrile], the AUC(0-t) worked out at 1550 ± 252 ng·h/mL, the Cmax is 125 ± 25.8 ng/mL, the Tmax came to 6 h and the half-life is 5.73 ± 0.8 h.
`Cn1ncc2cc(-c3c(C#N)cc(N4CCCNCC4)nc3-c3ccc(C#N)c(F)c3)ccc21` [Compound 20, 2-(4-cyano-3-fluorophenyl)-6-(1,4-diazaniline-1-yl)-3-(1-methyl-1H-indazol-5-yl)isonicotinonitrile]: the AUC(0-t) came out at 1410 ± 293 ng·h/mL, the peak level (Cmax) was 126 ± 23.9 ng/mL, the Tmax is 4.67 ± 1.15 h and the half-life is 4.66 ± 0.73 h.

Another data set concerns the target T1, LSD1 (Homo sapiens, UniProt O60341).
T1 construct: purchased Active Motif 31432
Briefly: LSD1 activity test (HTRF). The class given is biochemical. The settings on record: H3(1-21)K4 me1-biotin substrate, read-out: IC50, inhibitory activity on LSD1. On the procedure: In this test, a homogeneous time resolved fluorescence (HTRF) technology was utilized, and the inhibitory activity of compounds on LSD1 was detected by adopting a two-step method. The first step was to incubate LSD1, compounds of different concentrations, and a biotin-labeled methylated polypeptide substrate (H3(1-21)K4 me1-biotin) at the room temperature for fixed time.
A corresponding solution with a 1000-fold final concentration was formed by dilution in a 384-well Source plate, and then Echo550 was used for transferring 10 nL to a 384-well reaction plate for being tested.
An inhibition percentage was calculated using a maximum value, a minimum value, and a signal value (maximum value: fluorescence intensity of 5 μL of 2× enzyme solution+5 μL of 2× substrate mixed solution+10 nL of 100% DMSO+10 μL of detection solution; minimum value: fluorescence intensity of 5 μL of 1× reaction solution+5 μL of 2× substrate mixed solution+10 nL of 100% DMSO+10 μL of detection solution; and signal value: fluorescence intensity of 5 μL of 2× enzyme solution+5 μL of 2× substrate mixed solution+10 nL of diluted compound to be tested+10 μL of detection solution), and a calculation formula was as follows: […]
Using a logarithm of the concentration as an X axis and the percentage inhibition rate as a Y axis, a dose-response curve was fitted using a formula log(inhibitor) vs. response-Variable slope (Four parameters) of analysis software Graphpad Prism 5 to obtain the IC50 value of each compound on the enzyme activity.
Background: TR-FRET usually uses a lanthanide donor and a delayed reading to cut background.
As for `Cn1ncc2cc(-c3c(C(N)=O)cc(N4CCC(N)CC4)nc3-c3ccc(C#N)c(F)c3)ccc21` [Compound 10, 6-(4-aminopiperid-1-yl)-2-(4-cyano-3-fluorophenyl)-3-(1-methyl-1H-indazol-5-yl)isonicotinamide], the IC50 is 0.81 nM.
Turning to `Cn1ncc2cc(-c3cc(C(=O)NC4CC4)c(N4CCCNCC4)nc3-c3ccc(C#N)c(F)c3)ccc21` [Compound 28], the IC50 worked out at 2.3 nM.
Turning to `COc1ccc(-c2c(-c3ccc(C#N)c(F)c3)nc(N3CCC(N)CC3)c3c2CNC3=O)cc1F` [Compound 3, 4-(4-(4-aminopiperid-1-yl)-7-(3-fluoro-4-methoxyphenyl)-3-oxo-2,3-dihydro-1H-pyrrole[3,4-c]pyrid-6-yl)-2-fluorobenzonitrile], the IC50 is 5.8 nM.
On to `CC(C)(O)Cn1ncc2cc(-c3c(-c4ccc(C#N)c(F)c4)nc(N4CCC(N)CC4)c4c3CNC4=O)c(F)cc21` [Compound 9, 4-(4-(4-aminopiperid-1-yl)-7-(6-fluoro-1-(2-hydroxyl-2-methylpropyl)-1H-indazol-5-yl)-3-oxo-2,3-dihydro-1H-pyrrole[3,4-c]pyrid-6-yl)-2-fluorobenzonitrile], for which the IC50 came out at 0.72 nM.
For the compound `CC(C)(O)C(F)(F)c1ccc(-c2c(C#N)cc(N3CCC(N)CC3)nc2-c2ccc(C#N)c(F)c2)c(F)c1` [Compound 35, 6-(4-aminopiperid-1-yl)-2-(4-cyano-3-fluorophenyl)-3-(4-(1,1-difluoro-2-hydroxyl-2-methylpropyl)-2-fluorophenyl)isonicotinonitrile], the IC50 amounted to 2.2 nM.
On the same count and under the same terms, next, `CN(C)C(=O)c1cc(-c2ccc3c(cnn3C)c2)c(-c2ccc(C#N)c(F)c2)nc1N1CCCNCC1` [Compound 27, 6-(4-cyano-3-fluorophenyl)-2-(1,4-diazaniline-1-yl)-N,N-dimethyl-5-(1-methyl-1H-indazol-5-yl)nicotinamide]: 3.3 nM.
For `COc1ccc(-c2c(C#N)cc(C3CCC(N)CC3)nc2-c2ccc(C#N)c(F)c2)cc1F` (stereo not shown) [Compound 14, 6-(4-aminocyclohexyl)-2-(4-cyano-3-fluorophenyl)-3-(3-fluoro-4-methoxyphenyl)isonicotinonitrile], the 50% inhibitory concentration (IC50) turned out to be 8.9 nM.
On to `COc1ccc(-c2c(C#N)cc(N3CCC(N)CC3)nc2-c2ccc(C#N)c(F)c2)cc1F` [Compound 1, 6-(4-aminopiperid-1-yl)-2-(4-cyano-3-fluorophenyl)-3-(3-fluoro-4-methoxyphenyl)isonicotinonitrile], for which the IC50 was 2.1 nM.
The same measure, in the same setting: next, `COc1ccc(-c2c(C(N)=O)cc(N3CCC(N)CC3)nc2-c2ccc(C#N)c(F)c2)cc1F` [Compound 2, 6-(4-aminopiperid-1-yl)-2-(4-cyano-3-fluorophenyl)-3-(3-fluoro-4-methoxyphenyl)isonicotinamide]: 4.8 nM; `Cn1ncc2cc(-c3cc(C(N)=O)c(N4CCCNCC4)nc3-c3ccc(C#N)c(F)c3)ccc21` [Compound 26, 6-(4-cyano-3-fluorophenyl)-2-(1,4-diaza-1-yl)-5-(1-methyl-1H-indazol-5-yl)nicotinamide]: 2.9 nM.
Regarding `COc1ccc(-c2c(C#N)cc(N3CCCNCC3)nc2-c2ccc(C#N)c(F)c2)cc1F` [Compound 15, 2-(4-cyano-3-fluorophenyl)-6-(1,4-diazacyclohepta-1-yl)-3-(3-fluoro-4-methoxyphenyl)isonicotinonitrile], the IC50 amounted to 2 nM.
Take `Cn1ncc2cc(-c3cc(C#N)c(N4CCC(N)CC4)nc3-c3ccc(C#N)c(F)c3)ccc21` [Compound 12, 2-(4-aminopiperid-1-yl)-6-(4-cyano-3-fluorophenyl)-5-(1-methyl-1H-indazol-5-yl)nicotinonitrile]: the IC50 stood at 4.4 nM.
As to `Cc1noc2cc(-c3c(C#N)cc(N4CCC(N)CC4)nc3-c3ccc(C#N)c(F)c3)c(F)cc12` [Compound 33, 6-(4-aminopiperid-1-yl)-2-(4-cyano-3-fluorophenyl)-3-(5-fluoro-3-tolueno[d]isoxazol-6-yl)isonicotinonitrile], the IC50 came out at 0.34 nM.
With `Cn1ncc2cc(-c3c(C#N)cc(N4CCCNCC4)nc3-c3ccc(C#N)c(F)c3)ccc21` [Compound 20, 2-(4-cyano-3-fluorophenyl)-6-(1,4-diazaniline-1-yl)-3-(1-methyl-1H-indazol-5-yl)isonicotinonitrile], the IC50 was 1.4 nM.
Still for that read-out and setting: next, `COc1ccc(-c2c(C#N)cc(N3CCC4(CCNC4)CC3)nc2-c2ccc(C#N)c(F)c2)cc1F` [Compound 29, 2-(4-cyano-3-fluorophenyl)-3-(3-fluoro-4-methoxyphenyl)-6-(2,8-diazaspiro[4.5]dec-8-yl)isonicotinonitrile]: 3.4 nM.
With `Cn1ncc2cc(-c3cc(C(N)=O)c(N4CCC(N)CC4)nc3-c3ccc(C#N)c(F)c3)ccc21` [Compound 11, 2-(4-aminopiperid-1-yl)-6-(4-cyano-3-fluorophenyl)-5-(1-methyl-1H-indazol-5-yl)nicotinamide], the IC50 amounted to 1.5 nM.
`CC(C)(O)Cn1ncc2cc(-c3c(C(N)=O)cc(N4CCC(N)CC4)nc3-c3ccc(C#N)c(F)c3)c(F)cc21` [Compound 17, 6-(4-aminopiperid-1-yl)-2-(4-cyano-3-fluorophenyl)-3-(6-fluoro-1-(2-hydroxyl-2-methylpropyl)-1H-indazol-5-yl)isonicotinamide]: the half-maximal inhibitory concentration (IC50) was 1.2 nM.
On to `CC(C)(O)Cc1ccc(-c2c(C#N)cc(N3CCC(N)CC3)nc2-c2ccc(C#N)c(F)c2)c(F)c1` [Compound 19, 6-(4-aminopiperid-1-yl)-2-(4-cyano-3-fluorophenyl)-3-(2-fluoro-4-(2-hydroxyl-2-methylpropyl)phenyl)isonicotinonitrile], for which the IC50 came to 3.1 nM.
Take `COc1ccc(-c2c(C#N)cc(N3CCC4(CC3)CNC4)nc2-c2ccc(C#N)c(F)c2)cc1F` [Compound 22, 2-(4-cyano-3-fluorophenyl)-3-(3-fluoro-4-methoxyphenyl)-6-(2,7-diazaspiro[3.5]non-7-yl)isonicotinonitrile]: the IC50 was 6.2 nM.
On to `Cn1ncc2cc(-c3c(-c4ccc(C#N)c(F)c4)nc(N4CCC(N)CC4)c4c3CNC4=O)ccc21` [Compound 8, 4-(4-(4-aminopiperid-1-yl)-7-(1-methyl-1H-indazol-5-yl)-3-oxo-2,3-dihydro-1H-pyrrole[3,4-c]pyrid-6-yl)-2-fluorobenzonitrile], for which the IC50 amounted to 6.5 nM.
In the case of `CN1C(=O)C(F)(F)c2cc(-c3c(C#N)cc(N4CCC(N)CC4)nc3-c3ccc(C#N)c(F)c3)ccc21` [Compound 34, 6-(4-aminopiperid-1-yl)-2-(4-cyano-3-fluorophenyl)-3-(3,3-difluoro-1-methyl-2-oxoindol-5-yl)isonicotinonitrile], the IC50 was 1.5 nM.

Values taken from US20250163016A1, “PYRIDINE DERIVATIVE, PREPARATION METHOD THEREFOR AND USE THEREOF” (CHENGDU EASTON BIOPHARMACEUTICALS CO., LTD., priority 2022, published 2025).
